Measurements: patent US12497398B2, “Potent and selective covalent inhibitors of serine-arginine protein kinase (SRPK) 1 and SRPK2 and uses thereof” (DANA-FARBER CANCER INSTITUTE, INC., priority 2020, dated 2025)
Like-named read-outs stand apart in the source and are kept apart here.

What was measured:
SRPK1 = SRPK1 (Homo sapiens, UniProt Q96SB4); experiment: Z'-LYTE kinase assay, SRPK1 inhibition; type: biochemical
Procedure: (§1) IC50 values were determined by Z'-LYTE® kinase assay (catalog number PV3193, Invitrogen™) as described in Hatcher et al., Cell Chem. Biol. 25:460-470 (2018).

SRPK2 = SRPK2 (Homo sapiens, UniProt P78362); experiment: Z'-LYTE kinase assay, SRPK2 inhibition; type: biochemical
Procedure: as §1

[1] = Z'-LYTE kinase assay, read-out: IC50 (nM) SRPK1
[2] = Z'-LYTE kinase assay, read-out: IC50 (nM) SRPK2

SRPK1, sequence (Q96SB4 whole entry): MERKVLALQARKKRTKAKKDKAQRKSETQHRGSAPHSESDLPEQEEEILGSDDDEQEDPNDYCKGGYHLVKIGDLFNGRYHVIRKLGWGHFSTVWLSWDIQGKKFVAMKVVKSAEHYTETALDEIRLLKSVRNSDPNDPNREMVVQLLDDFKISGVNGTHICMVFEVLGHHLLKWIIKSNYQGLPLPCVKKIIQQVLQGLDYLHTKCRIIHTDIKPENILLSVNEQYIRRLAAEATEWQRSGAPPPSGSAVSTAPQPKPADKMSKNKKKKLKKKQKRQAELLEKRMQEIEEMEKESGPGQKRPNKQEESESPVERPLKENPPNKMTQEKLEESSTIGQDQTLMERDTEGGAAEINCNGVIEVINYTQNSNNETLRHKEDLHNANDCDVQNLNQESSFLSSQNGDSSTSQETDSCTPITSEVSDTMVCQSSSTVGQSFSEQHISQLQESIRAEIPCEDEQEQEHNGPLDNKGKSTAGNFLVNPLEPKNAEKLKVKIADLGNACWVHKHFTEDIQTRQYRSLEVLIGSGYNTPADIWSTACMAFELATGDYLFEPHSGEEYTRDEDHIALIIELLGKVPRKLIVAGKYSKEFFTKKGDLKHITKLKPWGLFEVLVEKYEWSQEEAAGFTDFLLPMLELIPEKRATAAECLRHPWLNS
SRPK2, sequence (P78362 whole entry): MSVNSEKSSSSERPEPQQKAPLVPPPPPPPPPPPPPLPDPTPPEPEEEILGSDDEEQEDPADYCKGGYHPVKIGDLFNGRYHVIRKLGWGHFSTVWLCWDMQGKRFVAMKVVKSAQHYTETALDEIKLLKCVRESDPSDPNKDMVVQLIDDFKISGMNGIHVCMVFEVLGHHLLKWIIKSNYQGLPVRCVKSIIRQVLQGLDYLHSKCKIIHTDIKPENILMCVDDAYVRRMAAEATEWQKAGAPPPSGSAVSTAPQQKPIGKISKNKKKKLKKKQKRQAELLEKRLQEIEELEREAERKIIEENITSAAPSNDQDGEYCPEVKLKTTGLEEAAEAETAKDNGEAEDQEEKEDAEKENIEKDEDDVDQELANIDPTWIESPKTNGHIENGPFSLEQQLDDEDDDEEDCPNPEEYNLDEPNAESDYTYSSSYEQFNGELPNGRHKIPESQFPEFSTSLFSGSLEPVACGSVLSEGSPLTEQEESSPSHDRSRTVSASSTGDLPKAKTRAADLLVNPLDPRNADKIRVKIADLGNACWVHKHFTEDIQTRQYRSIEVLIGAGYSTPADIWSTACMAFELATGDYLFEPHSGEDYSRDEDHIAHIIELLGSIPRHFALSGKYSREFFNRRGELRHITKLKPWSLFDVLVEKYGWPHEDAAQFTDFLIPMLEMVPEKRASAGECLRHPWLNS

Compound | IC50 (SRPK1; [1]) [nM] | IC50 (SRPK2; [2]) [nM] | IC50 (SRPK1) [nM] | IC50 (SRPK2) [nM]
CCc1cc2c(=O)c3c4ccc(C#N)cc4[nH]c3n(C(C)C)c2cc1-c1cccc(S(=O)(=O)F)c1 [Compound 1, 3-(8-cyano-2-ethyl-5-isopropyl-11-oxo-6,11-dihydro-5H-indolo[2,3-b]quinolin-3-yl)benzenesulfonyl fluoride] | 6 | 9 | – | –
COc1cc2c(=O)c3c4ccc(C#N)cc4[nH]c3n(C(C)C)c2cc1-c1cncc(S(=O)(=O)F)c1 [Compound 3, 5-(8-cyano-5-isopropyl-2-methoxy-11-oxo-6,11-dihydro-5H-indolo[2,3-b]quinolin-3-yl)pyridine-3-sulfonyl fluoride] | 6 | 5 | – | –
COc1cc2c(=O)c3c4ccc(C#N)cc4[nH]c3n(C(C)C)c2cc1-c1cccc(S(=O)(=O)F)c1 [Compound 2, 3-(8-cyano-5-isopropyl-2-methoxy-11-oxo-6,11-dihydro-5H-indolo[2,3-b]quinolin-3-yl)benzenesulfonyl fluoride] | – | – | 4 | 5
